Source: paper PMC7749613 (Journal of Cachexia, Sarcopenia and Muscle, 2020)
“And” between values parts separate entries of the source, which are not always exact repeats. Equal values may be shown once.

Tests used:
MATE2‐K = MATE2‐K (Homo sapiens, UniProt Q86VL8); assay: Cellular uptake in HEK293/MATE2‐K‐transfected versus mock cells; assay type: in vitro ADME; set-up: host or cells: HEK293; conditions: at 2.0 min
Description: (§1) However, for these studies, a different incubation buffer was used (145 mM NaCl, 3 mM KCl, 1 mM CaCl2, 0.5 mM MgCl2, 5 mM glucose, and 5 mM HEPES, pH 7.4). ^13 Moreover, intracellular acidification was achieved by preincubating the cells in buffer containing 30 mM ammonium chloride for 20 min at 37°C. […] Radioactivity and protein measurements were performed as described previously.

MATE1 = target: T1, MATE1 (Homo sapiens, UniProt Q96FL8); assay: Cellular uptake in HEK293/MATE1‐transfected versus mock cells; assay type: in vitro ADME; set-up: host or cells: HEK293; conditions: MATE1, at 2.0 min
T1 sequence (Q96FL8 1-570): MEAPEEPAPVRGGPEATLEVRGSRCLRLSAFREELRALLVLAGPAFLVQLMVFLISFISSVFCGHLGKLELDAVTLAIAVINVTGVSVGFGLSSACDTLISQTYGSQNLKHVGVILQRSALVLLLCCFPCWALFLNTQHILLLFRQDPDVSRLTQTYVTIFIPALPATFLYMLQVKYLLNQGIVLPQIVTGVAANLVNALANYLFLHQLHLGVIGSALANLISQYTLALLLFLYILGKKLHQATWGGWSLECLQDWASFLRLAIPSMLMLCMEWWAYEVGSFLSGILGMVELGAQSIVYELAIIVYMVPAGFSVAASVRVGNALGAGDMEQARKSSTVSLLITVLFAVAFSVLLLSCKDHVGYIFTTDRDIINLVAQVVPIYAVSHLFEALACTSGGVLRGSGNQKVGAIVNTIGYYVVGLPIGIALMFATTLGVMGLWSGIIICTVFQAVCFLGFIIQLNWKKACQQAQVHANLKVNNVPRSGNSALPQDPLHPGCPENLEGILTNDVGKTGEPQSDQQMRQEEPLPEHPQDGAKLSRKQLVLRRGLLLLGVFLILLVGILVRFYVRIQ
Description: as §1

BCRP (ABCG2) = target: T2, BCRP (ABCG2) (Homo sapiens, UniProt Q9UNQ0); assay: Transepithelial transport of rosuvastatin (±TCMCB07) in MDCKII/BCRP cells; assay type: in vitro ADME; conditions: human, pH 7.4, MDCKII/BCRP, rosuvastatin alone
T2 construct: host or cells: MDCKII
T2 sequence (Q9UNQ0 1-655): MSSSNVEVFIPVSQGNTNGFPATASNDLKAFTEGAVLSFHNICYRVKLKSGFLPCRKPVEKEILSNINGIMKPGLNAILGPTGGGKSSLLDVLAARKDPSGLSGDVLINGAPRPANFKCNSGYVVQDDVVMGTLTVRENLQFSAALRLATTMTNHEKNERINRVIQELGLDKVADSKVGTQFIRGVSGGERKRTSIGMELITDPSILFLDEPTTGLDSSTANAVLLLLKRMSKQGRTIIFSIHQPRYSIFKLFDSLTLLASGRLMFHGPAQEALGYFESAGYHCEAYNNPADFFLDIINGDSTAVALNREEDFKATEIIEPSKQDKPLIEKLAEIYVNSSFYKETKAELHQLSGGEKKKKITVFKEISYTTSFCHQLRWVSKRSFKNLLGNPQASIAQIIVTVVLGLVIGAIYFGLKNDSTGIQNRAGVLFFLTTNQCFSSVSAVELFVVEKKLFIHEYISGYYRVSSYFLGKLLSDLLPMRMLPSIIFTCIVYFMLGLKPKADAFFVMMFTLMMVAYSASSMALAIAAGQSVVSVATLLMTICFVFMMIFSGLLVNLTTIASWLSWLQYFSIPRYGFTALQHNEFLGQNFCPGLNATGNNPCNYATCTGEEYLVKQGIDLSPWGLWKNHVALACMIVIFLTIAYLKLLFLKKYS
Description: (§2) Cells were then washed three times, each with 0.5 mL pre‐warmed HBSS buffer. […] The cells were then incubated for various times up to 60 min. […] At the designated times, 15 μL of apical buffer and 50 μL of basolateral buffer were sampled. Once all the samples were collected, 0.5 mL of ice‐cold HBSS buffer was added to the well to stop transport after which the cells were rinsed three times with 0.5 mL of ice‐cold HBSS. The filters with monolayers were then detached from the chamber and placed in a scintillation vial, and the cells were lysed with 0.33 mL hyamine hydroxide.
(§3) The permeability of digoxin and rosuvastatin (prototypical substrates for MDR1 and BCRP, respectively) was determined by the following ^18 : (4) Papp=CR·VR/CD^o·A·∆Δt, where Papp is the apparent permeability, CR is the concentration of substrate in the receiver chamber, CD^o is the concentration of substrate in the donor chamber at time zero, VR is the volume of buffer in the receiver chamber, A is the surface area of the insert filter membrane, and ∆t is the time over which permeability is measured.
A similar analysis can be performed for rosuvastatin by substituting ERRos for ERDig and ERRos+T for ERDig+T in Eqn 6.

[1] = Transepithelial transport in MDCKII mock cells; assay type: in vitro ADME; conditions: dog, MDCK
Description: as §2, §3

[2] = In vivo mass balance study (urinary and faecal recovery) in mice
Description: Each mouse was then placed in a metabolic cage for 24 h, along with food and water, and the urine and faeces were collected. The metabolic cage was washed several times, after which 100 μL aliquots of diluted urine and faeces was placed in separate vials. Radioactivity measurements were then performed as described previously. All animal procedures were approved by the Institutional Animal Care and Use Committee at the University of Michigan, Ann Arbor.

human P‐gp (ABCB1, MDR1) = target: T3, human P‐gp (ABCB1, MDR1) (Homo sapiens, UniProt P08183); assay: Transepithelial transport of digoxin (±TCMCB07) in MDCKII/MDR1 cells; assay type: in vitro ADME; conditions: MDCKII/MDR1, digoxin alone
T3 construct: host or cells: MDCKII
Description: as §2, §3

OCT2 = target: T4, OCT2 (Homo sapiens, UniProt O15244); assay: Cellular uptake in HEK293/OCT2‐transfected versus mock cells; assay type: in vitro ADME; conditions: OCT2, at 5.0 min
T4 construct: host or cells: HEK293
T4 sequence (O15244 1-555): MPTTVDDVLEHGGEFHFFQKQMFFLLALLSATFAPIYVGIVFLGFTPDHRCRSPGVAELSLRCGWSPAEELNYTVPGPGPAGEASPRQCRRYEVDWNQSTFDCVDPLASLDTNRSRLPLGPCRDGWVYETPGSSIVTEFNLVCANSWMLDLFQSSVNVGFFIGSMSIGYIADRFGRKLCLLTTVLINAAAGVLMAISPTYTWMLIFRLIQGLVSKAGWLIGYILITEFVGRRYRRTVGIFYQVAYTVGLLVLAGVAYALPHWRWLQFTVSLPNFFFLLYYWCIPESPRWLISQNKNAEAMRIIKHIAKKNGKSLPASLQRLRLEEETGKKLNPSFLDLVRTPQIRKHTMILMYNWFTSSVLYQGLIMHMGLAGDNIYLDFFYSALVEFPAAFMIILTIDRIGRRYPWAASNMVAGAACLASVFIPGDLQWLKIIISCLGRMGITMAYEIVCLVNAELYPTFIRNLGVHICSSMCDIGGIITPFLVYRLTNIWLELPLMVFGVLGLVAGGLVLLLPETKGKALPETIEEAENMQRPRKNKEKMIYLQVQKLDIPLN
Description: (§4) Cells were then washed three times × 1.0 mL each with pre‐warmed Hank's Balanced Salt Solution (HBSS) buffer. A 0.5 mL aliquot of uptake buffer [HBSS plus 10 mM 4‐(2‐hydroxyethyl)‐1‐piperazineethanesulfonic acid (HEPES), pH 7.4], containing the radiolabelled prototypical substrate and mannitol, was then incubated for various times up to 60 min to determine the optimal incubation time for subsequent experiments (i.e. time of sampling during linear uptake conditions). At the designated times, 1.0 mL of ice‐cold HBSS buffer was added to stop uptake after which the cells were rinsed three times with 1.0 mL with ice‐cold HBSS. Hyamine hydroxide (0.33 mL) was then added to each well to lyse the cells. The cells were transferred into a scintillation vial and mixed with 6.0 mL of cytosine scintillation cocktail. Radioactivity of the solubilized cells was determined with a dual‐channel liquid scintillation counter (Beckman LS 6000; Beckman Coulter Inc., Fullerton, CA) and the protein quantified by a bicinchoninic acid protein assay kit (Pierce Biotechnology; Rockford, IL).

OAT3 = target: T5, OAT3 (Homo sapiens, UniProt Q8TCC7); assay: Cellular uptake in HEK293/OAT3‐transfected versus mock cells; assay type: in vitro ADME; conditions: OAT3, at 5.0 min
T5 construct: host or cells: HEK293
T5 sequence (Q8TCC7 1-542): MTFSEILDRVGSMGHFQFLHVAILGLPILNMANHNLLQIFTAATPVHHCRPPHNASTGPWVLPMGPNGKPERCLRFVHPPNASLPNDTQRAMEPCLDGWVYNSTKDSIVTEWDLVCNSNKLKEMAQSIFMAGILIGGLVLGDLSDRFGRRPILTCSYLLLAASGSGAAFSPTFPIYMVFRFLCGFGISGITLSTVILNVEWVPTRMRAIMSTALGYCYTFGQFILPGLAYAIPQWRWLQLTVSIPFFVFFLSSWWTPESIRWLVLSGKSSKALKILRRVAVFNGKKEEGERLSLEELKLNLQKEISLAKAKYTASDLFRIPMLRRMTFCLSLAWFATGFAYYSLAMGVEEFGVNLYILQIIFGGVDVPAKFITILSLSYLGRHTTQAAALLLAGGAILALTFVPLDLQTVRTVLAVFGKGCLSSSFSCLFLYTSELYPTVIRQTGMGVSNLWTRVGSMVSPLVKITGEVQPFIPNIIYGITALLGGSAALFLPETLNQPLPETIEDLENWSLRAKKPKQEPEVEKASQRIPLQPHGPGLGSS
Description: as §4

OATP2B1 = target: T6, OATP2B1 (Homo sapiens, UniProt O94956); assay: Cellular uptake in HEK293/OATP2B1‐transfected versus mock cells; assay type: in vitro ADME; conditions: OATP2B1, at 1.5 min
T6 construct: host or cells: HEK293
T6 sequence (O94956 1-709): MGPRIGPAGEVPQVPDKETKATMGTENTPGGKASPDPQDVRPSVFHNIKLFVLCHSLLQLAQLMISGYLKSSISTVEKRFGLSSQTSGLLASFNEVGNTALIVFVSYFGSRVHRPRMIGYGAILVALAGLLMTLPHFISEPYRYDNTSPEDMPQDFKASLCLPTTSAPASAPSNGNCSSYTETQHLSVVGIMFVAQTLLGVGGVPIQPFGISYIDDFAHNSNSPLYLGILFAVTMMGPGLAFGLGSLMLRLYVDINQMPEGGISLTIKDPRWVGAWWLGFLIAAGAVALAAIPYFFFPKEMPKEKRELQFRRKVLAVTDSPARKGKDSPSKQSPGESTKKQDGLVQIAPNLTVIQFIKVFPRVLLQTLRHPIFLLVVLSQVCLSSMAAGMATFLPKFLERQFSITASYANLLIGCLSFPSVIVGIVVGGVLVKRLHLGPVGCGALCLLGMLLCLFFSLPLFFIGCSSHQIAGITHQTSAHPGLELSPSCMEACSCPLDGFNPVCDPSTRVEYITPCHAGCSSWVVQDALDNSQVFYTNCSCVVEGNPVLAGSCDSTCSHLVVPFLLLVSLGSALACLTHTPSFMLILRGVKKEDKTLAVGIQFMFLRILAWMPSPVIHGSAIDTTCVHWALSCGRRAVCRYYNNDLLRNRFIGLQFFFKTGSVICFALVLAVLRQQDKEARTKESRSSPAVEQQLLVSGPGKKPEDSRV
Description: as §4

[3] = table values multiplied ×10^6, cm/s

T3 sequence (P08183 whole entry): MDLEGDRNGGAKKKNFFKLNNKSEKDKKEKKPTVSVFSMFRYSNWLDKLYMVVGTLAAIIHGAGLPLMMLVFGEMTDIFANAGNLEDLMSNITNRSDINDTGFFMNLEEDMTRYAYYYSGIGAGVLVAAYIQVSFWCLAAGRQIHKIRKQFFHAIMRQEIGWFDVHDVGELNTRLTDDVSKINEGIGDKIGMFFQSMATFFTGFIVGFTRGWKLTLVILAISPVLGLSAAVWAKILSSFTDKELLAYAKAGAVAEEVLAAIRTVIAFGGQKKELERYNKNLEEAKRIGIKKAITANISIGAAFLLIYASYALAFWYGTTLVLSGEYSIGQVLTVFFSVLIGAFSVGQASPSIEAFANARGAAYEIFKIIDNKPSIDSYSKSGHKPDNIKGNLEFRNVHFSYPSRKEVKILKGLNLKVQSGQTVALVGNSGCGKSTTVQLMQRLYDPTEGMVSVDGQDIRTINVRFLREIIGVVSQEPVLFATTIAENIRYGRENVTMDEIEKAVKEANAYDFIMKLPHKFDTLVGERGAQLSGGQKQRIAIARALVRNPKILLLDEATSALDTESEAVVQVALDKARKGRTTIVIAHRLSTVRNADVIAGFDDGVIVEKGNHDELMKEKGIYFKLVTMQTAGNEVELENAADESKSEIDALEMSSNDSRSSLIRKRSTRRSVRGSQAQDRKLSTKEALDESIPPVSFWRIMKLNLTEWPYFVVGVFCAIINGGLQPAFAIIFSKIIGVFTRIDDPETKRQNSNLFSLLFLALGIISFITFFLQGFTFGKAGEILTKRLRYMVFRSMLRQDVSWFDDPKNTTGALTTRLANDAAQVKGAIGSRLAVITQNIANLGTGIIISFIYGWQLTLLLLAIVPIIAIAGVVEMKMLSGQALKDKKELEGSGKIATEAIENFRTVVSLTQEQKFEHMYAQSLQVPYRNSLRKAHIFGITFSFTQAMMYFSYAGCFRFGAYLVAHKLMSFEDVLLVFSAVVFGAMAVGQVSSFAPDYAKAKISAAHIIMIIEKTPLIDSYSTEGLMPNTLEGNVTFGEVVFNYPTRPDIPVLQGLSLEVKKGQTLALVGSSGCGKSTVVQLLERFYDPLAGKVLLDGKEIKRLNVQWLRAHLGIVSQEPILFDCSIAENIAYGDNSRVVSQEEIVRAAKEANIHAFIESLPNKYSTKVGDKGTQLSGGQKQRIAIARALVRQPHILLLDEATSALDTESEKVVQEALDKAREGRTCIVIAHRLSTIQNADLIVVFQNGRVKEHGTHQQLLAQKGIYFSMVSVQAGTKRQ
MATE2‐K, sequence (Q86VL8 1-566 isoform Q86VL8-3): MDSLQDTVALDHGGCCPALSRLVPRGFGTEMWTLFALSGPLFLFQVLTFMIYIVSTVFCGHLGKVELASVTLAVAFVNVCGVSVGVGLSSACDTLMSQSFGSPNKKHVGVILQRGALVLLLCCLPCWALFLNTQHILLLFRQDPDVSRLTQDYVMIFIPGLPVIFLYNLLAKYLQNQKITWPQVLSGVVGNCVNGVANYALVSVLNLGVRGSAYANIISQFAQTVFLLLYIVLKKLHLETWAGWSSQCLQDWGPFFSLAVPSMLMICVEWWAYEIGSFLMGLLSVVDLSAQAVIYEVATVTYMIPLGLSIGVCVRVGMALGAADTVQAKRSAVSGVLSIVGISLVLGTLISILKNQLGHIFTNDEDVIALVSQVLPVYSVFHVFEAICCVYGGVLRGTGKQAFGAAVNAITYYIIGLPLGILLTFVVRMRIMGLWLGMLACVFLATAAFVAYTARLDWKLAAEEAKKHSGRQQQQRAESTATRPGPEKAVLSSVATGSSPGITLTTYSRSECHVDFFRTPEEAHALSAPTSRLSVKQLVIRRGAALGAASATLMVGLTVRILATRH

Compound: CC[N+](CC)(CC)CC [tetraethylammonium]
- mean enhancement of uptake (transfected/mock) (MATE2‐K): 46.7
- mean enhancement of uptake (transfected/mock) (MATE1): 122

Compound: CC(C)c1nc(N(C)S(C)(=O)=O)nc(-c2ccc(F)cc2)c1/C=C/[C@@H](O)C[C@@H](O)CC(=O)O [Rosuvastatin, rosuvastatin]
- efflux ratio at 21 nM (BCRP (ABCG2); read-out: Efflux ratio of rosuvastatin, Papp B to A/Papp A to B): 7 ± 0.3
- Papp A→B at 21 nM (BCRP (ABCG2); [3]): 11 ± 0.1 ×10⁻⁶ cm/s
- Papp B→A at 21 nM (BCRP (ABCG2); [3]): 76.8 ± 4.1 ×10⁻⁶ cm/s
- efflux ratio at 21 nM ([1]; pH 7.4, read-out: mean efflux ratio of rosuvastatin): 3.1
- Papp A→B at 21 nM ([1]; pH 7.4, read-out: mean permeability of rosuvastatin (A to B)): 18 ×10⁻⁶ cm/s
- Papp B→A at 21 nM ([1]; pH 7.4, read-out: mean permeability of rosuvastatin (B to A)): 55 ×10⁻⁶ cm/s

Compound: inulin
- % Urinary recovery, intravenous inulin ([2]; individual mice, [3H]inulin iv bolus given with intravenous TCMCB07, 24 h collection): 104% and 93.2% and 95.1%
- % Urinary recovery, intravenous inulin ([2]; individual mice, [3H]inulin iv bolus given with oral TCMCB07, 24 h collection (mouse 2: 48 h)): 106% and 100% and 107%
- % Urinary recovery, intravenous inulin ([2]; mean of 3 mice, given with intravenous TCMCB07): 97.4%
- % Urinary recovery, intravenous inulin ([2]; mean of 4 mice, given with oral TCMCB07): 105%

Compound: C[C@H]1O[C@@H](O[C@H]2[C@@H](O)C[C@H](O[C@H]3[C@@H](O)C[C@H](O[C@H]4CC[C@@]5(C)[C@H](CC[C@@H]6[C@@H]5C[C@@H](O)[C@]5(C)[C@@H](C7=CC(=O)OC7)CC[C@]65O)C4)O[C@@H]3C)O[C@@H]2C)C[C@H](O)[C@@H]1O [Digoxin, digoxin]
- Efflux ratio of digoxin, Papp B to A/Papp A to B (human P‐gp (ABCB1, MDR1)): 24.2 ± 7.3
- Papp (A to B) of digoxin (human P‐gp (ABCB1, MDR1); [3]): 1.1 ± 0.3 ×10^−6 cm/s
- Papp (B to A) of digoxin (human P‐gp (ABCB1, MDR1); [3]): 22.4 ± 4.0 ×10^−6 cm/s
- efflux ratio at 38 nM ([1]; pH 7.4, read-out: mean efflux ratio of digoxin): 4.5
- Papp A→B at 38 nM ([1]; pH 7.4, read-out: mean permeability of digoxin (A to B)): 6.3 ×10⁻⁶ cm/s
- Papp B→A at 38 nM ([1]; pH 7.4, read-out: mean permeability of digoxin (B to A)): 20.8 ×10⁻⁶ cm/s

Compound: C[n+]1ccc(-c2ccccc2)cc1 [1‐methyl‐4‐phenylpyridinium]
- mean enhancement of uptake (transfected/mock) (OCT2): 373

Compound: C[C@]12CC[C@@H]3c4ccc(OS(=O)(=O)O)cc4CC[C@H]3[C@@H]1CCC2=O [estrone 3‐sulfate]
- mean enhancement of uptake (transfected/mock) (OAT3): 470
- mean enhancement of uptake (transfected/mock) (OATP2B1): 63.5
